Assay results reported in US8865724B2, “Preparation of 2-methyl-4-amino-5(substituted-1H-1,2,3-triazolyl)methylpyrimidine derivatives and microbicidal activity thereof” (Central China Normal University, priority 2011, dated 2014).

Assays:
Downy Mildew of Cucumber = test: Microbicidal activity on cucumber seedlings, spray then spore inoculation (Embodiment 8); conditions: for pest or weed control at 500 µg/g: Cucumis sativus, read-out: Downy Mildew of Cucumber Average inhibition rate (%)
Protocol: (§1) (Pseudomonassyringaepv. tomato (Okabe) Young, Dye & Wilkie), Cucumber Angular Leaf Spot, Rice Sheath Blight Disease (Rhizoctonia solani), Corynespora Leaf Spot of Cucumber (Corynespora cassiicola), Downy Mildew of Cucumber (Cucumber Downy Mildew).
(§2) Testing agents and control agents were sprayed uniformly at A.M. of a sunshine day on the cucumber seminal leaves. After 2 hours, the leaves were inoculated with pathogenic microbes and cultured at humidity. […] Strip inoculation is used for Rice Sheath Blight Disease and phytophthora blight of pepper, in which the liquor was sprayed and after 2 hours, inoculation of strips was performed followed by culturing at humidity. After full occurrence of diseases in the control group, state of illness was examined according to grading standards, and a disease index and inhibition rate were calculated.

[1] = test system: Corynespora Leaf Spot of Cucumber; test: as above; conditions: for pest or weed control at 500 µg/g: Corynespora, in Cucumis sativus, read-out: Corynespora Leaf Spot of Cucumber Average inhibition rate (%)
Protocol: as §1, §2

[2] = test system: Rice Sheath Blight Disease; test: Microbicidal activity, spray then strip inoculation (Embodiment 8); conditions: for pest or weed control at 500 µg/g: Oryza sativa, read-out: Rice Sheath Blight Disease Average inhibition rate (%)
Protocol: as §1, §2

[3] = testing concentration of 500 μg/g

Compound | melting point | other results
Cc1ncc(Cn2nnc(COc3ccc([N+](=O)[O-])cc3Cl)c2I)c(N)n1 [Compound 30] | 223 to 225 °C | 
Cc1ncc(Cn2cc(COC(=O)COc3ccc([N+](=O)[O-])cc3)nn2)c(N)n1 [Compound 66] | 145 to 148 °C | 
Cc1ncc(Cn2cc(CNC(=O)c3ccccc3F)nn2)c(N)n1 [Compound 46] | 205 to 206 °C | 
Cc1ncc(Cn2cc(COC(=O)COc3cc(Cl)c(Cl)c(Cl)c3)nn2)c(N)n1 [Compound 64] | 160 to 161 °C | 
Cc1ncc(Cn2cc(CNC(=O)COc3ccccc3Cl)nn2)c(N)n1 [Compound 69] | 201 to 202 °C | 
Cc1ncc(Cn2cc(CNC(=O)c3ccc([N+](=O)[O-])cc3)nn2)c(N)n1 [Compound 47] | 239 to 240 °C | 
Cc1ncc(Cn2cc(COC(=O)c3ccc([N+](=O)[O-])cc3Cl)nn2)c(N)n1 [Compound 42] | 129 to 130 °C | 
Cc1ncc(Cn2nnc(CNC(=O)c3ccc(Cl)cc3)c2I)c(N)n1 [Compound 103] | 231 to 233 °C | 
Cc1ncc(Cn2cc(COC(=O)c3ccccc3Br)nn2)c(N)n1 [Compound 40] | 174 to 176 °C | 
Cc1ncc(Cn2nnc(CNC(=O)c3ccc([N+](=O)[O-])cc3)c2I)c(N)n1 [Compound 101] | 223 to 224 °C | 
Cc1ncc(Cn2nnc(COC(=O)c3ccc(F)cc3)c2I)c(N)n1 [Compound 94] | 207 to 209 °C | 
Cc1ccc(C(=O)NCc2cn(Cc3cnc(C)nc3N)nn2)cc1 [Compound 45] | 132 to 133 °C | 
Cc1ncc(Cn2nnc(COC(=O)c3ccccc3Cl)c2I)c(N)n1 [Compound 89] | 185 to 187 °C | 
COc1ccc(OCC(=O)OCc2cn(Cc3cnc(C)nc3N)nn2)cc1 [Compound 58] | 128 to 129 °C | 
Cc1ncc(Cn2cc(CNC(=O)c3ccccc3Br)nn2)c(N)n1 [Compound 52] | 233 to 234 °C | 
Cc1ncc(Cn2nnc(CNC(=O)c3cccc(Cl)c3)c2I)c(N)n1 [Compound 99] | 197 to 198 °C | 
Cc1ncc(Cn2nnc(CNC(=O)c3ccc(F)cc3)c2I)c(N)n1 [Compound 104] | 217 to 219 °C | 
Cc1ncc(Cn2cc(CNC(=O)COc3ccc(F)cc3Cl)nn2)c(N)n1 [Compound 79] | 125 to 126 °C | 
CCOC(=O)c1ccc(OCc2nnn(Cc3cnc(C)nc3N)c2I)cc1 [Compound 87] | 146 to 147 °C | 
Cc1ncc(Cn2nnc(COC(=O)c3cccc([N+](=O)[O-])c3)c2I)c(N)n1 [Compound 97] | 201 to 202 °C | 
Cc1cccc(OCc2cn(Cc3cnc(C)nc3N)nn2)c1 [Compound 19] | 58 to 59 °C | 
Cc1ncc(Cn2nnc(COC(=O)c3ccccc3Br)c2I)c(N)n1 [Compound 98] | 200 to 202 °C | 
Cc1ccc(OCC(=O)NCc2cn(Cc3cnc(C)nc3N)nn2)cc1 [Compound 70] | 117 to 119 °C | 
Cc1ncc(Cn2cc(COC(=O)COc3cccc(C)c3C)nn2)c(N)n1 [Compound 63] | 168 to 171 °C | 

Compound | melting point | other results
Cc1ncc(Cn2cc(COC(=O)COc3ccc([N+](=O)[O-])cc3Cl)nn2)c(N)n1 [Compound 67] | 145 to 148 °C | 
Cc1ncc(Cn2nnc(CNC(=O)c3ccccc3)c2I)c(N)n1 [Compound 102] | 218 to 220 °C | 
Cc1ccc(C(=O)OCc2nnn(Cc3cnc(C)nc3N)c2I)cc1 [Compound 92] | 200 to 201 °C | 
COc1ccc(OCC(=O)NCc2cn(Cc3cnc(C)nc3N)nn2)cc1 [Compound 75] | 165 to 166 °C | 
Cc1ncc(Cn2cc(COC(=O)COc3ccccc3[N+](=O)[O-])nn2)c(N)n1 [Compound 65] | 158 to 160 °C | 
Cc1ncc(Cn2cc(CNC(=O)COc3ccc(Br)cc3)nn2)c(N)n1 [Compound 74] | 105 to 106 °C | 
Cc1ncc(Cn2cc(COc3ccc(Br)cc3)nn2)c(N)n1 [Compound 21] | 167 to 168 °C | 
Cc1ncc(Cn2cc(COC(=O)COc3ccc(F)cc3Cl)nn2)c(N)n1 [Compound 60] | 144 to 146 °C | 
Cc1ncc(Cn2cc(CNC(=O)c3ccc([N+](=O)[O-])cc3Cl)nn2)c(N)n1 [Compound 51] | > 260 °C | 
Cc1ncc(Cn2cc(CNC(=O)c3ccccc3Cl)nn2)c(N)n1 [Compound 49] | 217 to 218 °C | 
Cc1ncc(Cn2cc(CNC(=O)COc3ccc(Cl)cc3)nn2)c(N)n1 [Compound 71] | 124 to 125 °C | 
Cc1ccc(OCc2cn(Cc3cnc(C)nc3N)nn2)cc1 [Compound 17] | 157 to 158 °C | 
Cc1ncc(Cn2nnc(CNC(=O)c3ccccc3F)c2I)c(N)n1 [Compound 105] | 204 to 206 °C | 
Cc1ncc(Cn2cc(CNC(=O)c3cccc([N+](=O)[O-])c3)nn2)c(N)n1 [Compound 53] | 188 to 189 °C | 
Cc1ncc(Cn2cc(COC(=O)COc3ccc(Cl)cc3)nn2)c(N)n1 [Compound 56] | 152 to 153 °C | 
Cc1ncc(Cn2cc(COC(=O)COc3ccc(Cl)c(C)c3)nn2)c(N)n1 [Compound 55] | 163 to 165 °C | 
Cc1ncc(Cn2cc(CNC(=O)COc3cccc(C)c3C)nn2)c(N)n1 [Compound 77] | 169 to 170 °C | 
Cc1ncc(Cn2cc(COc3ccccc3C)nn2)c(N)n1 [Compound 18] | 153 to 154 °C | 
COC(=O)NC(=S)Nc1ccccc1NC(=S)NC(=O)OC [Thiophanate-methyl, reference compound] |  | pest or weed control at 500 µg/g (Downy Mildew of Cucumber): 20%; pest or weed control at 500 µg/g [1]: 80%; pest or weed control at 500 µg/g [2]: 85%
Cc1ncc(Cn2cc(COC(=O)COc3cccc(C(F)(F)F)c3)nn2)c(N)n1 [Compound 62] | 138 to 140 °C | 
Cc1ncc(Cn2nnc(COc3ccccc3[N+](=O)[O-])c2I)c(N)n1 [Compound 80] | 178 to 180 °C | 
Cc1ncc(Cn2nnc(COC(=O)c3ccccc3F)c2I)c(N)n1 [Compound 93] | 187 to 188 °C | 
Cc1ncc(Cn2nnc(CNC(=O)c3ccccc3Br)c2I)c(N)n1 [Compound 109] | 200 to 202 °C | 
Cc1ncc(Cn2cc(COc3ccc(C#N)cc3)nn2)c(N)n1 [Compound 22] | 185 to 186 °C | 

Compound | melting point | other results
Cc1ncc(Cn2nnc(COC(=O)c3ccc(Cl)cc3)c2I)c(N)n1 [Compound 91] | 192 to 193 °C | 
Cc1ncc(Cn2nnc(COc3cccc(C(F)(F)F)c3)c2I)c(N)n1 [Compound 81] | 146 to 148 °C | 
Cc1ccc(C(=O)NCc2nnn(Cc3cnc(C)nc3N)c2I)cc1 [Compound 106] | 180 to 182 °C | 
Cc1ncc(Cn2nnc(CNC(=O)c3ccccc3Cl)c2I)c(N)n1 [Compound 100] | 186 to 188 °C | 
Cc1ncc(Cn2nnc(CNC(=O)c3ccc([N+](=O)[O-])cc3Cl)c2I)c(N)n1 [Compound 107] | 183 to 184 °C | 
Cc1ncc(Cn2nnc(COC(=O)c3ccc([N+](=O)[O-])cc3Cl)c2I)c(N)n1 [Compound 96] | 183 to 184 °C | 
jingangmycin [reference compound] |  | Downy Mildew of Cucumber Average inhibition rate (%) (Downy Mildew of Cucumber; [3]): 70%; Corynespora Leaf Spot of Cucumber Average inhibition rate (%) [1, 3]: 70%; Rice Sheath Blight Disease Average inhibition rate (%) [2, 3]: 70%
Cc1ncc(Cn2cc(CNC(=O)COc3ccccc3)nn2)c(N)n1 [Compound 78] | 168 to 169 °C | 
Cc1ncc(Cn2cc(COC(=O)COc3ccc(C(C)(C)C)cc3)nn2)c(N)n1 [Compound 61] | 107 to 110 °C | 
Cc1ncc(Cn2cc(COc3ccc(F)cc3)nn2)c(N)n1 [Compound 20] | 178 to 179 °C | 
Cc1ncc(Cn2cc(COC(=O)c3cccc([N+](=O)[O-])c3)nn2)c(N)n1 [Compound 41] | 159 to 160 °C | 
Cc1ncc(Cn2cc(CNC(=O)c3cccc(Cl)c3)nn2)c(N)n1 [Compound 50] | 213 to 214 °C | 
Cc1ncc(Cn2nnc(COC(=O)c3cccc(Cl)c3)c2I)c(N)n1 [Compound 90] | 185 to 187 °C | 
Cc1ncc(Cn2cc(CNC(=O)COc3ccc([N+](=O)[O-])cc3)nn2)c(N)n1 [Compound 73] | 143 to 144 °C | 
Cc1ncc(Cn2cc(COC(=O)COc3ccc(Cl)cc3C)nn2)c(N)n1 [Compound 59] | 138 to 140 °C | 
Cc1ncc(Cn2nnc(CNC(=O)c3cccc([N+](=O)[O-])c3)c2I)c(N)n1 [Compound 108] | 202 to 204 °C | 
Cc1ncc(Cn2nnc(COC(=O)c3ccc([N+](=O)[O-])cc3)c2I)c(N)n1 [Compound 95] | 192 to 193 °C | 
Cc1ncc(Cn2cc(CNC(=O)COc3ccc([N+](=O)[O-])cc3Cl)nn2)c(N)n1 [Compound 72] | 183 to 184 °C | 
Cc1ncc(Cn2cc(CNC(=O)c3ccc(Cl)cc3)nn2)c(N)n1 [Compound 48] | 165 to 167 °C | 
COc1ccc(C(=CC(=O)N2CCOCC2)c2ccc(Cl)cc2)cc1OC [Dimethomorph, reference compound] |  | pest or weed control at 500 µg/g (Downy Mildew of Cucumber): 90%; pest or weed control at 500 µg/g [1]: 70%; pest or weed control at 500 µg/g [2]: 90%
Cc1ccc(OCC(=O)OCc2cn(Cc3cnc(C)nc3N)nn2)cc1 [Compound 57] | 149 to 151 °C | 
Cc1ncc(Cn2cc(CNC(=O)c3ccc(F)cc3)nn2)c(N)n1 [Compound 44] | 211 to 212 °C | 
Cc1ncc(Cn2nnc(COc3ccc(Cl)cc3Cl)c2I)c(N)n1 [Compound 83] | 176 to 177 °C | 
Cc1ncc(Cn2nnc(COc3ccccc3Br)c2I)c(N)n1 [Compound 85] | 145 to 147 °C | 
